The text below walks through data of patent US20040229898A1, “Cyclic bis-compounds clearing malformed proteins” (priority 2001, published 2004).

Data set [1] concerns N2a cells. Kind of data set: Cell viability assay (MTT) in uninfected N2a cells. The format is cell-based, mouse. As to conditions: for % Cell Viability (±SEM) 50 nM / % Cell Viability (±SEM) 200 nM / % Cell Viability (±SEM) 500 nM: seven days, N2a, MTT, versus untreated control; for % Cell Viability (±SEM) 500 nM / Cytotoxicity for uninfected neuroblastoma (N2a) cells, in words: 500 nM. On the procedure: Uninfected N2a cells were identically seeded onto six-well plates containing MEM (3 mL, supplemented as above). […] Medium was exchanged, together with the compound, every three days. After seven days, thiazolyl blue (300 μL, MTT, 3-[4,5-dimethylthiazol-2-yl]-2,5-diphenyltetrazolium bromide, Sigma-Aldrich) in PBS (5 mgmL^−1), previously sterile filtered, was added. Cells were incubated at 37° C. for 5 h. The medium was removed, and DMSO (3 mL) was added and repeatedly aspirated to solubilize the converted dye.

In data set [2] the test system is MRC-5 fibroblast cells. As to conditions: cited from earlier work.
Data set [3] concerns the target PrP^Sc in ScGT1 cells (Mus musculus, UniProt P04925). The format is cell-based.
The test system of data set [4] is neuroblastoma cells. As to conditions: mouse.
The conditions of data set [5]: patients, cited from earlier work.

“Also recorded” adds a separate entry of the source. Like-named read-outs stand apart in the source and are kept apart here.

Chain of PrP^Sc in ScGT1 cells (P04925 23-230 limits assumed): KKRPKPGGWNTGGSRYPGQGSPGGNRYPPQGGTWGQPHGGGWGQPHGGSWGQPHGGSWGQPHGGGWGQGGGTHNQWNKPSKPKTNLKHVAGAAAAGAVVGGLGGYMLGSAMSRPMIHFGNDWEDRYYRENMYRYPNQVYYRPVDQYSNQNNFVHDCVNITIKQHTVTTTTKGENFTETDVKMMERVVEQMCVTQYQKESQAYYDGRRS

`COc1ccc2nc3cc(Cl)ccc3c(NCCCCNc3c4ccc(Cl)cc4nc4ccc(OC)cc34)c2c1` [Compound 1]: in data set [1], the “% Cell Viability (±SEM) 50 nM” value is on record as 100(±9) %, the “% Cell Viability (±SEM) 200 nM” value was 100(±9) % and the “% Cell Viability (±SEM) 500 nM” value was 100(±6) %.
In the case of `COc1ccc2nc3cc(Cl)ccc3c(NCCCCCCNc3c4ccc(Cl)cc4nc4ccc(OC)cc34)c2c1` [Compound 2], in data set [1], the “% Cell Viability (±SEM) 50 nM” value is on record as 90(±3) %, the “% Cell Viability (±SEM) 200 nM” value is 96(±3) % and the “% Cell Viability (±SEM) 500 nM” value is listed as 82(±3) %.
On the same counts, the results for `COc1ccc2nc3cc(Cl)ccc3c(NCCCCCCCCNc3c4ccc(Cl)cc4nc4ccc(OC)cc34)c2c1` [Compound 3] are 100(±4) %, 100(±2) % and 97(±6) %.
On the same counts, the results for `COc1ccc2nc3cc(Cl)ccc3c(NCCCCCCCCCCNc3c4ccc(Cl)cc4nc4ccc(OC)cc34)c2c1` [Compound 4] are 99(±21) %, 95(±21) % and 90(±17) %.
For the compound `COc1ccc2nc3cc(Cl)ccc3c(NCCNCCNc3c4ccc(Cl)cc4nc4ccc(OC)cc34)c2c1` [Compound 5], in data set [1], the “% Cell Viability (±SEM) 50 nM” value is given as 100(±20) %, the “% Cell Viability (±SEM) 200 nM” value was 100(±9) % and the “% Cell Viability (±SEM) 500 nM” value is 100(±18) %.
`COc1ccc2nc3cc(Cl)ccc3c(NCCCNCCCNc3c4ccc(Cl)cc4nc4ccc(OC)cc34)c2c1` [Compound 6]: in data set [1], the “% Cell Viability (±SEM) 50 nM” value is 98(±5) %, the “% Cell Viability (±SEM) 200 nM” value is 33(±1) % and the “% Cell Viability (±SEM) 500 nM” value is 1(±1) %.
On the same counts, the results for `COc1ccc2nc3cc(Cl)ccc3c(NCCNCCCNCCNc3c4ccc(Cl)cc4nc4ccc(OC)cc34)c2c1` [Compound 8] are 100(±13) %, 23(±10) % and 1(±1) %.
On the same counts, the results for `COc1ccc2nc3cc(Cl)ccc3c(NCCCNCCCNCCCNc3c4ccc(Cl)cc4nc4ccc(OC)cc34)c2c1.Cl` [Compound 9] are 92(±7) %, 16(±7) % and 10(±2) %.
As for `COc1ccc2nc3cc(Cl)ccc3c(NCCCN3CCN(CCCNc4c5ccc(Cl)cc5nc5ccc(OC)cc45)CC3)c2c1` [Compound 11, (6-chloro-2-methoxy-acridin-9-yl)-(3-{4-[3-(6-chloro-2-methoxy-acridin-9-ylamino)-propyl]-piperazin-1-yl}-propyl)-amine], in data set [1], the “% Cell Viability (±SEM) 50 nM” value was 94(±11) %; the “% Cell Viability (±SEM) 200 nM” value is recorded as 89(±9) %; the “Cytotoxicity for uninfected neuroblastoma (N2a) cells, in words” value (shortened to “Cytotoxicity … in words”) is on record as “not cytotoxic”; the “% Cell Viability (±SEM) 500 nM” value is 79(±1) %. In data set [2], the “cytotoxicity to MRC-5 fibroblast cells versus non-constrained polyamine-linked bis-acridines (e.g., 7)” value is on record as “less cytotoxic”. Moreover, the “reduction of PrP^Sc in ScGT1 cells, in words” value in data set [3] (100 nM to 500 nM, Western blot) is given as “dose-dependent manner”. In data set [3] (0.5 μM or 1.0 μM, one week), the “curing of ScGT1 cells after one-week incubation” value is “could be cured of PrP^Sc; also recorded: absence of PK-resistant PrP”. For the same compound, the “re-infection of cured ScGT1 cells with prion inoculum” value in data set [3] (cured cells incubated with prion inoculum) is recorded as “could subsequently be re-infected; also recorded: decrease the capacity of ScGT1 cells to be re-infected; also recorded: PrP^Sc was detected”.
On to `COc1ccc2nc3cc(Cl)ccc3c(NCCOCCOCCNc3c4ccc(Cl)cc4nc4ccc(OC)cc34)c2c1` [Compound 13, N,N′-Bis-(6-chloro-2-methoxy-acridin-9-yl)-1,8-diamino-3,6-dioxaoctane], for which, in data set [1], the “% Cell Viability (±SEM) 50 nM” value is given as 97(±8) %; the “% Cell Viability (±SEM) 200 nM” value is recorded as 90(±9) %; the “Cytotoxicity … in words” value is “not cytotoxic”; the “% Cell Viability (±SEM) 500 nM” value is reported as 98(±11) %.
Take `COc1ccc2nc3cc(Cl)ccc3c(NCCCN(C)CCCNc3c4ccc(Cl)cc4nc4ccc(OC)cc34)c2c1` [Compound 14]: in data set [1], the “% Cell Viability (±SEM) 50 nM” value is recorded as 73(±2) %, the “% Cell Viability (±SEM) 200 nM” value is listed as 59(±8) % and the “% Cell Viability (±SEM) 500 nM” value is reported as 1(±1) %.
Turning to `CCCN(CCCCNc1c2ccc(Cl)cc2nc2ccc(OC)cc12)CCCNc1c2ccc(Cl)cc2nc2ccc(OC)cc12` [Compound 15, N-(6-Chloro-2-methoxy-acridin-9-yl)-N′-[3-(6-chloro-2-methoxy-acridin-9-ylamino)-propyl]-N′-propyl-butane-1,4-diamine], in data set [1], the “% Cell Viability (±SEM) 50 nM” value is 100(±5) %, the “% Cell Viability (±SEM) 200 nM” value was 77(±4) % and the “% Cell Viability (±SEM) 500 nM” value is on record as 0(±1) %.
As for `COc1ccc2nc3cc(Cl)ccc3c(NCCCCN(CCCNc3c4ccc(Cl)cc4nc4ccc(OC)cc34)C(=O)[C@H](C)N)c2c1` [Compound 16], in data set [1], the “% Cell Viability (±SEM) 50 nM” value is 100(±22) %, the “% Cell Viability (±SEM) 200 nM” value is given as 59(±13) % and the “% Cell Viability (±SEM) 500 nM” value is 0(±1) %.
Take `COc1ccc2nc3cc(Cl)ccc3c(NCCCCN(CCCNc3c4ccc(Cl)cc4nc4ccc(OC)cc34)C(=O)C(C)NC(=O)OC(C)(C)C)c2c1` (stereo not drawn) [Compound 17, (1-{[4-(6-chloro-2-methoxy-acridin-9-ylamino)-butyl]-[3-(6-chloro-2-methoxy-acridin-9-ylamino)-propyl]-carbamoyl}-ethyl)-carbamic acid tert-butyl ester]: in data set [1], the “% Cell Viability (±SEM) 50 nM” value is on record as 98(±12) %; the “% Cell Viability (±SEM) 200 nM” value is listed as 85(±6) %; the “Cytotoxicity … in words” value is given as “not cytotoxic”; the “% Cell Viability (±SEM) 500 nM” value was 84(±3) %.
Regarding `COc1ccc2nc3cc(Cl)ccc3c(NCCCCN(CCCNc3c4ccc(Cl)cc4nc4ccc(OC)cc34)C(=O)CNC(=O)[C@H](C)N)c2c1` [Compound 18], in data set [1], the “% Cell Viability (±SEM) 50 nM” value is 96(±4) %, the “% Cell Viability (±SEM) 200 nM” value was 93(±1) % and the “% Cell Viability (±SEM) 500 nM” value is 0(±1) %.
On the same counts, the results for `COc1ccc2nc3cc(Cl)ccc3c(NCCCCN(CCCNc3c4ccc(Cl)cc4nc4ccc(OC)cc34)C(=O)CNC(=O)[C@H](C)NC(=O)OC(C)(C)C)c2c1` [Compound 19] are 88(±18) %, 78(±13) % and 70(±12) %.
`COc1ccc2nc3cc(Cl)ccc3c(NCCCCNCCCNc3c4ccc(Cl)cc4nc4ccc(OC)nc34)c2n1.Cl` [Compound 20]: in data set [1], the “% Cell Viability (±SEM) 50 nM” value is reported as 100(±15) %; the “% Cell Viability (±SEM) 200 nM” value was 100(±9) %; the “Cytotoxicity … in words” value was “nontoxic”; the “% Cell Viability (±SEM) 500 nM” value is given as 88(±8) %.
As for `COc1ccc2nc3cc(Cl)ccc3c(NCCCCCCCCNc3c4ccc(Cl)cc4nc4ccc(OC)nc34)c2n1` [Compound 21, N,N′-Bis-(7-chloro-2-methoxy-benzo[b][1,5]naphthyridin-10-yl)-octane-1,8-diamine], the melting point was 114 to 115 °C. For the same compound, in data set [1], the “% Cell Viability (±SEM) 50 nM” value is reported as 95(±3) %, the “% Cell Viability (±SEM) 200 nM” value is recorded as 100(±6) % and the “% Cell Viability (±SEM) 500 nM” value is 96(±5) %.
In the case of `CN(C)CCCN1c2ccccc2Sc2ccc(Cl)cc21` [chlorpromazine], the “decrease in cell population” value in data set [4] is given as 50%.
Take `CSc1ccc2c(c1)N(CCC1CCCCN1C)c1ccccc1S2` (stereo not drawn) [thioridazine]: the brain concentration in data set [5] (300 mg daily) was 20 µM; in data set [5] (daily oral dosage of 800 mg, post mortem brain samples) it was “more than 80 μM”.

Broadly, the melting point is the temperature, or range, at which the solid turns liquid.
